Tests used:
[1] = tested on: DCX45(pML82)-1B (disrupted cytochrome P450 reductase gene); experiment: disk sensitivity on YEPD of LEU+ spores / strain DCX45(pML82)-1B (Example 1); conditions: for sensitivity of LEU+ cultures compared with leu− cultures: spores plated on YEPD, disks containing the inhibitors
[2] = tested on: erg6 mutants; conditions: cited from earlier work
[3] = tested on: Saccharomyces cerevisiae strain DCX45(pML82)-1B (disrupted cytochrome P450 reductase gene) versus strain STX429-2A (erg6); assay type: cell-based; conditions: 20 μg per disk; YEPD agar, 30° C., two days; differential of approximately 8 mm or more scored as active
Description: Liquid yeast extract, peptone and dextrose (YEPD) media is first prepared by mixing the following ingredients obtained from Difco
and autoclaving at 20 lbs for 15 min. Solidified YEPD media is prepared using the above ingredients, except that
(§1) Overnight cultures of S. cerevisiae strain DCX45-(pML82)-1B from Example 1 above and strain STX429-2A obtained from the Yeast Genetics Stock Center are grown in liquid YEPD media shaken at 30° C. to an OD600 of ˜5 or greater.
(§2) Test media are prepared by combining separately 0.5 parts STX429-2A inoculum to 100 parts of warm YEPD agar media and 2 parts of DCX45(pML82)-1B to 100 parts of warm YEPD agar media. Plates for each culture are poured. Test samples are prepared on disks in duplicate, and each is placed on a STX429-2A plate and a DCX45(pML82)-1B plate, testing 20 μg of test sample per disk. A ¼″ disk containing 10 μg of dinaconazole is used as a positive control on each plate.
(§3) The plates are incubated at 30° C. for two days and then examined to compare activity on the two strains. Actives produce a larger zone on the DCX45(pML82)-1B plate than on the STX429-2A plate. Only compounds producing a differential of approximately 8 mm or more are scored as active.

[4] = tested on: STX429-2A (erg 6); conditions: strain STX429-2A (erg 6)
Description: as §2
The plates are incubated at 30° C. for two days and then examined to compare activity on the two strains. Actives produce a larger zone on the DCX45(pML82)-1B plate than on the STX429-2A plate.

[5] = tested on: DCX45 (pML82)-1B; experiment: imidazole sensitivity (limit of detection) on cytochrome P450 reductase disrupted strain; assay type: cell-based, Saccharomyces cerevisiae
Description: as §1, §2, §3
The imidazole sensitivity of these compounds in the strains is as follows: […]

[6] = tested on: cytochrome P450 reductase yeast mutants (TSY11-6C, TSY21); conditions: cited from earlier work

| Compound | activity in the cytochrome P450 reductase screen (larger zone on the DCX45(pML82)-1B plate than on the STX429-2A plate) [3] | Limit of Detection [5] | sensitivity of LEU+ cultures compared with leu− cultures [1] | further results |
| --- | --- | --- | --- | --- |
| C/C=C/C/C=C/CCC(=O)[C@H]1O[C@H]1C(N)=O [cerulenin] |  |  |  | sensitivity of strain DCX45(pML82)-1B [1]: increased sensitivity |
| C[C@@H]1C[C@@H]([C@H](O)CC2CC(=O)NC(=O)C2)C(=O)[C@@H](C)C1 [cycloheximide] |  |  |  | sensitivity or resistance of erg6 mutant strains [2]: hypersensitivity |
| CC(C)(C)C(O)/C(=C/c1ccc(Cl)cc1Cl)n1cncn1 (centres unmarked) [dinaconazole] | active | 2 ng | more sensitive | Limit of Detection [4]: 50 ng |
| Clc1ccc(COC(Cn2ccnc2)c2ccc(Cl)cc2Cl)cc1 (centres unmarked) [econazole] | active | 2 ng | more sensitive | Limit of Detection [4]: 50 ng |
| CN1C(=O)[C@]23CC4=CC=C[C@H](O)[C@H]4N2C(=O)[C@@]1(CO)SS3 [gliotoxin] | positive |  |  |  |
| CC(=O)N1CCN(c2ccc(OCC3COC(Cn4ccnc4)(c4ccc(Cl)cc4Cl)O3)cc2)CC1 (centres unmarked) [ketoconazole] | active | 5 ng | more sensitive | sensitivity of strains TSY11-6C and TSY21 ([6]; disrupted cytochrome P450 reductase genes): sensitive; increase in sensitivity of cytochrome P450 reductase yeast mutants ([6]; mutants lacking the cytochrome P450 reductase gene): 200 fold; sensitivity of strain DCX45(pML82)-1B [1]: supersensitivity |
| Clc1ccc(COC(Cn2ccnc2)c2ccc(Cl)cc2Cl)c(Cl)c1 (centres unmarked) [miconazole] | active |  |  |  |
| C[C@@H]1[C@H](O)[C@@H](C)/C=C/C=C/CC/C=C/C=C/C=C/C=C/C(O[C@H]2O[C@H](C)[C@@H](O)[C@H](N)[C@@H]2O)CC2O[C@](O)(CC(O)C(O)CCC(O)CC(O)CC(O)CC(=O)O[C@H]1C)CC(O)C2C(=O)O (some centres unmarked) [nystatin] |  |  |  | sensitivity or resistance of erg6 mutant strains [2]: resistance |
| mevinolin [lactonized mevinolin] | no response |  |  |  |

Source: patent publication US6387647B1 (priority 1993, dated 2002)
